Reference: the NIST ThermoML archive (doi:10.1016/j.jct.2016.02.009)

Assays:
[1] = Molar enthalpy of transition or fusion; details: Crystal 1; Adiabatic calorimetry
[2] = for molar entropy: 101.33 kPa, Small (less than 1 g) adiabatic calorimetry; for vapor or sublimation pressure: Calculated from knudsen effusion weight loss; for Triple point temperature: Adiabatic calorimetry

CCCCCCCCCCCCCCCCn1cc[n+](C)c1.O=S(=O)([N-]S(=O)(=O)C(F)(F)F)C(F)(F)F
Details | Molar enthalpy of transition or fusion [kcal/mol]
[1] | 12.26

[2]
Details | molar entropy [J/K/mol] | vapor or sublimation pressure [kPa]
5 K, Crystal 2 | 1.23 | –
10 K, Crystal 2 | 7.81 | –
15 K, Crystal 2 | 19.15 | –
20 K, Crystal 2 | 33.76 | –
25 K, Crystal 2 | 50.4 | –
30 K, Crystal 2 | 68.27 | –
35 K, Crystal 2 | 86.83 | –
40 K, Crystal 2 | 105.7 | –
45 K, Crystal 2 | 124.7 | –
50 K, Crystal 2 | 143.7 | –
60 K, Crystal 2 | 181.5 | –
70 K, Crystal 2 | 218.5 | –
80 K, Crystal 2 | 254.6 | –
90 K, Crystal 2 | 289.6 | –
100 K, Crystal 2 | 323.6 | –
110 K, Crystal 2 | 356.7 | –
120 K, Crystal 2 | 388.9 | –
130 K, Crystal 2 | 420.2 | –
140 K, Crystal 2 | 450.7 | –
150 K, Crystal 2 | 480.4 | –
160 K, Crystal 2 | 509.6 | –
170 K, Crystal 2 | 538.1 | –
180 K, Crystal 2 | 566.1 | –
190 K, Crystal 2 | 593.7 | –
200 K, Crystal 2 | 621 | –
210 K, Crystal 2 | 647.9 | –
220 K, Crystal 2 | 674.5 | –
230 K, Crystal 2 | 701.1 | –
240 K, Crystal 2 | 727.5 | –
250 K, Crystal 2 | 754.1 | –
260 K, Crystal 2 | 780.8 | –
270 K, Crystal 2 | 808.1 | –
280 K, Crystal 2 | 836.2 | –
290 K, Crystal 2 | 866.1 | –
298.15 K, Crystal 2 | 893.4 | –
300 K, Crystal 2 | 900.3 | –
305.5 K, Crystal 1 | 922.5 | –
305.5 K, Crystal 2 | 922.5 | –
310 K, Crystal 1 | 941 | –
319.25 K, Crystal 1 | 971.3 | –
319.25 K, Liquid | 1132 | –
320 K, Liquid | 1134 | –
330 K, Liquid | 1164 | –
340 K, Liquid | 1194 | –
350 K, Liquid | 1222 | –
360 K, Liquid | 1251 | –
370 K, Liquid | 1279 | –
508.07 K, Liquid | – | 3.21e-05
513.07 K, Liquid | – | 4.5e-05
518.07 K, Liquid | – | 6.31e-05
523.07 K, Liquid | – | 8.75e-05
528.06 K, Liquid | – | 0.0001197
533.07 K, Liquid | – | 0.0001644

[2]
Details | Triple point temperature [K]
Crystal 1 | 319.25
Crystal 2 | 305.5

CCCCCCCCCCn1cc[n+](C)c1.O=S(=O)([N-]S(=O)(=O)C(F)(F)F)C(F)(F)F
Details | Molar enthalpy of transition or fusion [kcal/mol]
[1] | 6.852

[2]
Details | molar entropy [J/K/mol]
5 K, Crystal 2 | 1.18
10 K, Crystal 2 | 7.33
15 K, Crystal 2 | 17.93
20 K, Crystal 2 | 31.5
25 K, Crystal 2 | 46.8
30 K, Crystal 2 | 63.01
35 K, Crystal 2 | 79.61
40 K, Crystal 2 | 96.26
50 K, Crystal 2 | 129.2
60 K, Crystal 2 | 161.4
70 K, Crystal 2 | 192.7
80 K, Crystal 2 | 222.8
90 K, Crystal 2 | 252
100 K, Crystal 2 | 280.3
110 K, Crystal 2 | 307.8
120 K, Crystal 2 | 334.4
130 K, Crystal 2 | 360.4
140 K, Crystal 2 | 385.8
150 K, Crystal 2 | 410.5
160 K, Crystal 2 | 434.8
170 K, Crystal 2 | 458.6
180 K, Crystal 2 | 482.1
190 K, Crystal 2 | 505.4
200 K, Crystal 2 | 528.6
210 K, Crystal 2 | 551.8
220 K, Crystal 2 | 575.2
230 K, Crystal 2 | 599.3
240 K, Crystal 2 | 625.2
249 K, Crystal 1 | 653.6
249 K, Crystal 2 | 653.6
252 K, Crystal 1 | 662.4
260 K, Crystal 1 | 682.3
270 K, Crystal 1 | 707.5
277.33 K, Crystal 1 | 726.3
277.33 K, Liquid | 829.8
280 K, Liquid | 836.9
290 K, Liquid | 863.1
298.15 K, Liquid | 883.9
300 K, Liquid | 888.6
310 K, Liquid | 913.5
320 K, Liquid | 937.9
330 K, Liquid | 961.7
340 K, Liquid | 985.1
350 K, Liquid | 1008
360 K, Liquid | 1031
370 K, Liquid | 1053

[2]
Details | Triple point temperature [K]
Crystal 1 | 277.33
Crystal 2 | 249

CCCCCCCCCCCCCCn1cc[n+](C)c1.O=S(=O)([N-]S(=O)(=O)C(F)(F)F)C(F)(F)F
Details | Molar enthalpy of transition or fusion [kcal/mol]
[1] | 10.8

[2]
Details | molar entropy [J/K/mol] | vapor or sublimation pressure [kPa]
5 K, Crystal 2 | 1.17 | –
10 K, Crystal 2 | 7.53 | –
15 K, Crystal 2 | 18.57 | –
20 K, Crystal 2 | 32.77 | –
25 K, Crystal 2 | 48.94 | –
30 K, Crystal 2 | 66.22 | –
35 K, Crystal 2 | 84.11 | –
40 K, Crystal 2 | 102.3 | –
45 K, Crystal 2 | 120.5 | –
50 K, Crystal 2 | 138.7 | –
60 K, Crystal 2 | 174.7 | –
70 K, Crystal 2 | 209.8 | –
80 K, Crystal 2 | 244 | –
90 K, Crystal 2 | 277.1 | –
100 K, Crystal 2 | 309.3 | –
110 K, Crystal 2 | 340.5 | –
120 K, Crystal 2 | 370.8 | –
130 K, Crystal 2 | 400.3 | –
140 K, Crystal 2 | 429.1 | –
150 K, Crystal 2 | 457.2 | –
160 K, Crystal 2 | 484.6 | –
170 K, Crystal 2 | 511.6 | –
180 K, Crystal 2 | 538.1 | –
190 K, Crystal 2 | 564.2 | –
200 K, Crystal 2 | 589.9 | –
210 K, Crystal 2 | 615.5 | –
220 K, Crystal 2 | 640.8 | –
230 K, Crystal 2 | 666 | –
240 K, Crystal 2 | 691.3 | –
250 K, Crystal 2 | 716.7 | –
260 K, Crystal 2 | 742.5 | –
270 K, Crystal 2 | 769.1 | –
280 K, Crystal 2 | 797.3 | –
290 K, Crystal 2 | 829.7 | –
295.5 K, Crystal 1 | 850.6 | –
295.5 K, Crystal 2 | 850.6 | –
298.15 K, Crystal 1 | 860.5 | –
300 K, Crystal 1 | 866 | –
308.77 K, Crystal 1 | 891.2 | –
308.77 K, Liquid | 1037 | –
310 K, Liquid | 1041 | –
320 K, Liquid | 1070 | –
330 K, Liquid | 1098 | –
340 K, Liquid | 1125 | –
350 K, Liquid | 1152 | –
360 K, Liquid | 1179 | –
370 K, Liquid | 1205 | –
498.07 K, Liquid | – | 2.76e-05
503.06 K, Liquid | – | 3.85e-05
508.05 K, Liquid | – | 5.39e-05
513.05 K, Liquid | – | 7.45e-05
518.04 K, Liquid | – | 0.0001018
523.05 K, Liquid | – | 0.0001397
528.05 K, Liquid | – | 0.0001898

[2]
Details | Triple point temperature [K]
Crystal 1 | 308.77
Crystal 2 | 295.5
